From PMC4527243, “Role of electrostatic interactions for ligand recognition and specificity of peptide transporters” (BMC Biology, 2015)
Where a SMILES comes first, the peptide text is derived from it.

B1: YePEPT (Yersinia enterocolitica subsp. palearctica YE-P4) (protein)
chain: MQTSTNTPGGRTFFGHPYPLSGLFLSEMWERFSFYGIRPLLILFMAATVFDGGMGLPREQASAIVGIFAGSMYLAALPGGLLADNWLGQQRAVWYGSILIALGHLSIALSAFFGNDLFFIGLVFIVLGTGLFKTCISVMVGTLYKPGDARRDGGFSLFYMGINMGSFIAPLLSGWLLRTHGWHWGFGIGGIGMLVALLIFRGFAIPAMKRYDAEVGLDSSWNKPTNQRQGVGRWVTAIMAVVVVIIALISQGVIPINPVMIASLLVYVIAASVTLYFIYLFAFAKMSRKDRARLLVCFILLVSAAFFWSAFEQKPTSFNLFANDYTDRMVMGFEIPTVWFQSINALFIILLAPVFSWAWPALAKKKIQPSSITKFVIGILCAAAGFAVMMYAAQHVLSSGGAGVSPLWLVMSILLLTLGELCLSPIGLATMTLLAPDRMRGQVMGLWFCASSLGNLAAGLIGGHVKADQLDMLPTLFARCSIALVICAAVLILLIVPIRRLMNNTQGQQTA
notes: full-length gene in pZUDF21-rbs-3C-10His, C-terminal HRV3C site and deca-His tag, expressed in E. coli BL21(DE3) pLysS; uptake in whole cells

Experiments:
YePEPT [1] = biological target: T1, YePEPT (Yersinia enterocolitica, UniProt A0A2R9TD79); test: competition of [3H]Ala-Ala uptake in E. coli cells; format: cell-based, Escherichia coli
T1 construct: gene YEP4_02370; full-length gene in pZUDF21-rbs-3C-10His, C-terminal HRV3C site and deca-His tag, expressed in E. coli BL21(DE3) pLysS; uptake in whole cells
T1 sequence (A0A2R9TD79 1-511): B1 chain

YePEPT [2] = biological target: T1, YePEPT; test: competition of [3H]Ala-Ala uptake in E. coli cells; format: cell-based; conditions: 50 μM [3H]Ala-Ala, 2.5 mM competitor, pH 7.5, room temperature
[3] = substrate: C[C@H](N)C(=O)N[C@@H](C)C(=O)O; test: [3H]Ala-Ala uptake saturation in E. coli cells; format: cell-based, Yersinia enterocolitica; conditions: labelled compound, pH 7.5, 150 mM NaCl, room temperature, 100 s

Molecule	Ki (YePEPT [1])	further results
C[C@H](NC(=O)[C@@H](N)CC(=O)O)C(=O)O [Asp-Ala] (H-Asp-Ala-OH)	~80 µM	
C[C@H](NC(=O)[C@@H](N)CCC(=O)O)C(=O)O [Glu-Ala] (H-Glu-Ala-OH)	~50 µM	
C[C@H](NC(=O)[C@@H](N)Cc1ccc(O)cc1)C(=O)O [Tyr-Ala]		competition of [3H]Ala-Ala uptake in E. coli cells (YePEPT [2]): YePEPT also displayed specificity for Ala-Tyr and Tyr-Ala at comparable levels
B1		Km [3]: 200 µM
